pIC50: −log10 of the molar value.
What was measured:
[1] = tested on: T. cruzi amastigotes; assay: Activity against intracellular T. cruzi amastigotes; format: cell-based, Trypanosoma cruzi; conditions: intracellular amastigotes grown in rat L6 cells; means of two independent assays; read-out: IC50 T. cruzi amastigotes
Excerpt: The bioactivity of isolated compounds against intracellular T. cruzi amastigotes grown in rat L6 […] is presented in Table 1. […] Rotenone and deguelin are known to be strong mitochondrial complex I (also known as NADH:ubiquinone oxidoreductase) inhibitors,[43–45] while different activities between closely related rotenoids (rotenone, 5′-α-epirotenone, and 5′-β-epirotenone) has already been shown. […] The variation in activity observed on our rapidly generated series of structural analogs points in the same direction. As shown in Fig. 3 and Table 1, the cyclic and bent form of the rotenoid at the B/C ring junction is essential for activity, since compounds 40 and 41 were not active.
The pure compounds activity was assessed against T. cruzi amastigotes as described in ref. [27].

[2] = tested on: L6 cells (rat skeletal myoblast); assay: Cytotoxicity assay: L-6 cells; format: cell-based; conditions: means of two independent assays
Procedure: The pure compounds cytotoxicity was assessed against L6 cells as described in ref. [27].

medicarpin [Compound 15]
pIC50 [1]: 3.70 | pIC50 [2]: 3.65

Source: PMC12062876, “Efficient constitution of a library of rotenoid analogs active against Trypanosoma cruzi from a digitalized plant extract collection” (RSC Advances, 2025)
